Test results from patent US20200407717A1, “METHODS OF MODULATING ANTISENSE ACTIVITY” (Ionis Pharmaceuticals, Inc., priority 2018, published 2020).
e = 2'-O-(2-methoxyethyl) (MOE); d = 2'-deoxy (DNA)

System: Malat1 RNA
Test: Antisense activity by RT-qPCR, Malat1, A431 cells
Assay type: cell-based
Method: A431 cells were grown at 10,000 cells per well and pre-treated with a variety of growth factors to determine if the addition of exogenous growth factors affects antisense activity or uptake of modified antisense oligonucleotides in a cell. The growth factors used were EGF, insulin growth factor (IGF), transforming growth factor (TGF), […] (VEGF), hepatocyte growth factor (HGF), platelet growth factor (PGF) and fibroblasts growth factor (FGF). To test antisense activity, cells were treated for 4 hours with a growth factor or vehicle alone, and then treated with compound no. 25690 (complementary to Drosha), compound no. 395254 (complementary to Malat1), or vehicle alone. RNA was isolated from the cells and Drosha or Malat1 RNA levels were measured by RT-qPCR. Human primer probe set 13816 (forward sequence […], designated herein as SEQ ID NO: 3; reverse sequence […], designated herein as SEQ ID NO: 4; probe sequence […], designated herein as SEQ ID NO: 5) was used to measure Drosha mRNA levels and primer probe set RTS2736 (forward sequence […], designated herein as SEQ ID NO: 6; reverse sequence […], designated herein as SEQ ID NO: 7; probe sequence TGCCACATCGCCACCCCGT, designated herein as SEQ ID NO: 8) was used to measure Malat1 RNA levels. Drosha and Malat1 RNA levels were normalized to total RNA content, as measured by RIBOGREEN®. Results are presented in the tables below as normalized RNA levels, relative to untreated control cells.
A431 cells were treated with EGF or TGF at 200 ng/mL in the presence or absence of 1 μM of the EGFR tyrosine kinase inhibitor PD174265. The cells were then treated with compound no. 25690 or compound no. 395254 as in Example 8. Total RNA was isolated and analyzed by RT-qPCR, as in Example 8.
Following siRNA treatment, cells were treated with compound no. 25690 or compound no. 395254 in the presence or absence of EGF. 16 hours after treatment with a PS-ASO with or without EGF, cells were harvested, and RNA levels were analyzed via RT-qPCR as in Example 8.

## GGCATATGCAGATAATGTTC (sugars from the 5' end e5 d10 e5, all phosphorothioate, methylation of C not given here) [compound 395254]
125 nM, EGFR siRNA-1
  Malat1 RNA (% Control): 26.5 % Control
125 nM, EGFR siRNA-2
  Malat1 RNA (% Control): 26.6 % Control
125 nM, EGFR siRNA-2 + EGF
  Malat1 RNA (% Control): 55.2 % Control
125 nM, EGFR siRNA-2, Table 27
  Malat1 RNA (% Control): 53.1 % Control
125 nM, TGF
  Malat1 RNA (% Control): 74.4 % Control
125 nM, TGF+PD174265
  Malat1 RNA (% Control): 47.0 % Control
125 nM, TGF, Table 21
  Malat1 RNA (% Control): 33.1 % Control
250 nM, Control
  Malat1 RNA (% Control): 74.0 % Control
250 nM, Control Luciferase siRNA
  Malat1 RNA (% Control): 16.3 % Control
250 nM, Control Luciferase siRNA, Table 27
  Malat1 RNA (% Control): 27.6 % Control
250 nM, Control luciferase + EGF
  Malat1 RNA (% Control): 24.9 % Control
250 nM, Control, Table 21
  Malat1 RNA (% Control): 37.6 % Control
250 nM, EGF
  Malat1 RNA (% Control): 43.6 % Control
250 nM, EGFR siRNA-1
  Malat1 RNA (% Control): 19.7 % Control
250 nM, EGFR siRNA-2
  Malat1 RNA (% Control): 21.5 % Control
250 nM, EGFR siRNA-2 + EGF
  Malat1 RNA (% Control): 34.0 % Control
250 nM, EGFR siRNA-2, Table 27
  Malat1 RNA (% Control): 29.7 % Control
250 nM, TGF
  Malat1 RNA (% Control): 29.4 % Control
250 nM, TGF+PD174265
  Malat1 RNA (% Control): 34.9 % Control
250 nM, TGF, Table 21
  Malat1 RNA (% Control): 19.7 % Control
500 nM, Control
  Malat1 RNA (% Control): 44.5 % Control
500 nM, Control Luciferase siRNA
  Malat1 RNA (% Control): 11.9 % Control
500 nM, Control Luciferase siRNA, Table 27
  Malat1 RNA (% Control): 18.9 % Control
500 nM, Control luciferase + EGF
  Malat1 RNA (% Control): 17.1 % Control
500 nM, Control, Table 21
  Malat1 RNA (% Control): 28.9 % Control
500 nM, EGF
  Malat1 RNA (% Control): 26.1 % Control
500 nM, EGFR siRNA-1
  Malat1 RNA (% Control): 16.9 % Control
500 nM, EGFR siRNA-2
  Malat1 RNA (% Control): 15.1 % Control
500 nM, EGFR siRNA-2 + EGF
  Malat1 RNA (% Control): 24.6 % Control
500 nM, EGFR siRNA-2, Table 27
  Malat1 RNA (% Control): 23.4 % Control
500 nM, TGF
  Malat1 RNA (% Control): 27.9 % Control
500 nM, TGF+PD174265
  Malat1 RNA (% Control): 27.1 % Control
500 nM, TGF, Table 21
  Malat1 RNA (% Control): 13.5 % Control
1000 nM, Control
  Malat1 RNA (% Control): 27.0 % Control
1000 nM, Control Luciferase siRNA
  Malat1 RNA (% Control): 7.9 % Control
1000 nM, Control Luciferase siRNA, Table 27
  Malat1 RNA (% Control): 18.2 % Control
1000 nM, Control luciferase + EGF
  Malat1 RNA (% Control): 15.2 % Control
1000 nM, Control, Table 21
  Malat1 RNA (% Control): 15.2 % Control
1000 nM, EGF
  Malat1 RNA (% Control): 15.1 % Control
1000 nM, EGFR siRNA-1
  Malat1 RNA (% Control): 11.3 % Control
1000 nM, EGFR siRNA-2
  Malat1 RNA (% Control): 12.7 % Control
1000 nM, EGFR siRNA-2 + EGF
  Malat1 RNA (% Control): 21.4 % Control
1000 nM, EGFR siRNA-2, Table 27
  Malat1 RNA (% Control): 17.2 % Control
1000 nM, TGF
  Malat1 RNA (% Control): 14.2 % Control
1000 nM, TGF+PD174265
  Malat1 RNA (% Control): 21.2 % Control
1000 nM, TGF, Table 21
  Malat1 RNA (% Control): 7.2 % Control
2000 nM, Control
  Malat1 RNA (% Control): 24.1 % Control
2000 nM, Control Luciferase siRNA
  Malat1 RNA (% Control): 7.6 % Control
2000 nM, Control Luciferase siRNA, Table 27
  Malat1 RNA (% Control): 15.2 % Control
2000 nM, Control luciferase + EGF
  Malat1 RNA (% Control): 10.2 % Control
2000 nM, Control, Table 21
  Malat1 RNA (% Control): 11.2 % Control
2000 nM, EGF
  Malat1 RNA (% Control): 9.9 % Control
2000 nM, EGFR siRNA-1
  Malat1 RNA (% Control): 10.2 % Control
2000 nM, EGFR siRNA-2
  Malat1 RNA (% Control): 11.0 % Control
2000 nM, EGFR siRNA-2 + EGF
  Malat1 RNA (% Control): 18.3 % Control
2000 nM, EGFR siRNA-2, Table 27
  Malat1 RNA (% Control): 15.2 % Control
2000 nM, TGF
  Malat1 RNA (% Control): 9.5 % Control
2000 nM, TGF+PD174265
  Malat1 RNA (% Control): 10.2 % Control
2000 nM, TGF, Table 21
  Malat1 RNA (% Control): 5.2 % Control
4000 nM, Control
  Malat1 RNA (% Control): 17.9 % Control
4000 nM, Control Luciferase siRNA
  Malat1 RNA (% Control): 1.3 % Control
4000 nM, Control Luciferase siRNA, Table 27
  Malat1 RNA (% Control): 11.2 % Control
4000 nM, Control luciferase + EGF
  Malat1 RNA (% Control): 7.2 % Control
4000 nM, Control, Table 21
  Malat1 RNA (% Control): 7.2 % Control
4000 nM, EGF
  Malat1 RNA (% Control): 10.3 % Control
4000 nM, EGFR siRNA-1
  Malat1 RNA (% Control): 7.8 % Control
4000 nM, EGFR siRNA-2
  Malat1 RNA (% Control): 11.1 % Control
4000 nM, EGFR siRNA-2 + EGF
  Malat1 RNA (% Control): 17.2 % Control
4000 nM, EGFR siRNA-2, Table 27
  Malat1 RNA (% Control): 15.2 % Control
4000 nM, TGF
  Malat1 RNA (% Control): 11.6 % Control
4000 nM, TGF+PD174265
  Malat1 RNA (% Control): 7.2 % Control
4000 nM, TGF, Table 21
  Malat1 RNA (% Control): 5.7 % Control
Control (no growth factor), Table 16
  IC50: 36 ± 3.2 nM
Control Luciferase siRNA, Table 25
  IC50: 46 ± 5.3 nM
Control Luciferase siRNA, Table 27
  IC50: 49 ± 6.3 nM
Control luciferase + EGF, Table 27
  IC50: 26 ± 2.4 nM
Control, Table 21
  IC50: 50 ± 7 nM
EGF pre-treatment 4 hours, Table 16
  IC50: 15 ± 3 nM
EGFR siRNA-1, Table 25
  IC50: 86 ± 9.3 nM
EGFR siRNA-2 + EGF, Table 27
  IC50: 87 ± 4.2 nM
EGFR siRNA-2, Table 25
  IC50: 100 ± 9.7 nM
EGFR siRNA-2, Table 27
  IC50: 89 ± 5.9 nM
TGF 200 ng/mL + 1 μM PD174265, Table 21
  IC50: 56 ± 8.1 nM
TGF 200 ng/mL, Table 21
  IC50: 21 ± 4 nM
TGF pre-treatment 4 hours, Table 16
  IC50: 13 ± 2.1 nM
Cells treated with IGF, FGF, HGF, VEGF or PGF relative to PS-ASO alone (data not shown)
  half maximal inhibitory concentration, Malat1: unchanged
